Results reported in patent US20100247461A1, “ANTI-INFLAMMATORY COMPLEXES” (Signum Biosciences, Inc., priority 2009, published 2010).
pEC50: −log10 of the molar value. Values after ≈ are worked out from the molar mass of the structure shown.

How the values were obtained:
[1] = test system: TPA-treated mouse ears (erythema, Δa* redness); assay: TPA mouse ear model of inflammation - erythema inhibition; format: in vivo; details: topical, 24 hours
Procedure: The protocol for measuring erythema inhibition by provided complexes was developed in-house by utilizing the CR-400 chroma meter from Konica Minolta (2). This instrument was used to measure the Δa*redness value from 6 mm biopsy punches taken 24 hours post TPA/compound treatment as described in the edema inhibition section above. […] These values were corrected for the Δa* value of non TPA-treated mouse ears of littermate controls.

neutrophils = assay: Inhibition of oxidative burst from neutrophils (fMLP-induced superoxide release); format: cell-based; details: Neutrophil, reduction of superoxide formation, fMLP 0.2 μM, 0 to 100 μM compound; read-out: ED50 Respiratory Burst
Procedure: During inflammation, neutrophils produce and release superoxide ions, otherwise known as oxidative burst response, causing cytotoxicity. […] The superoxide release assay is based on published protocols (Goldstein et al. (1975). J. Clin. Invest. 56(5): 1155-63). Briefly, cells were pre-incubated for 10 min at 37° C. with a mixture of cytochrome c (75 μM final concentration), cytochalasin B (5 μg/ml) with or without superoxide dismutase (SOD) (10 μg/ml) and with or without AFC, AFC-Calcium complex, and AFC-Strontium complex (ranging from 0 to 100 μM). To initiate O2^− release, fMLP (0.2 μM) was added the cells are incubated for 10 min at 37° C. Samples were then placed on ice for 5 min and subsequently centrifuged at 3,000 rpm at 4° C. The supernatant was then analyzed by spectrophotometric measurement at 550 and 556.5 nm. The ED50 values for the reduction of superoxide formation, obtained with AFC, AFC-Calcium complex, and AFC-Strontium complex are depicted in Table 2.

[2] = test system: Propionibacterium acnes (strain ATCC 6919); assay: Inhibition of Propionibacterium acnes growth; format: cell-based; details: Cutibacterium acnes, ATCC6919, 72 h, 72 hours, anaerobic, absorbance 600 nm, 1×10^6 CFU per mL; read-out: IC50 (inhibition of P. acnes growth)
Procedure: The assay for the inhibition of growth of Propionibacterium acnes bacteria is described elsewhere (Nakatsuji et al., J Invest Dermatol, 2009, 129: 2480-2488). In brief, the strain ATCC 6919 of P. acnes (American Type Culture Collection, Manassas, Va.) was cultured on Brucella agar (R01254, Remel, Lenexa, Kans.) supplemented with 5% (v/v) defibrinated sheep blood, vitamin K (5 mg/ml, Remel, Lenexa, Kans.), and hemin (50 mg/ml, Remel, Lenexa, Kans.), under an anaerobic condition using Gas-Pak (BD, Sparks, Md.) at 37° C. A single colony was inoculated in Reinforced Clostridium Medium (Oxford, Hampshire, England) and cultured at 37° C. under the anaerobic condition. Each of the inventive complexes—AFC-Sr, AFC-Ag and AFC-Zn as well as AFC were dissolved in 100% (v/v) DMSO. Samples of each inventive complex, AFC and a solution of benzoyl peroxide (“BPO”) were then each incubated with an inoculum of P. acnes at a concentration of 1×10^6 CFU per mL in Reinforced Clostridium Medium in a 96-well microplate (100 μL per well) under anaerobic conditions for 72 hours. Samples of each were tested at final concentrations per well of 0.25 μg/mL, 0.5 μg/mL, 1.0 μg/mL, 1.95 μg/mL, 3.9 μg/mL, 7.8 μg/mL, 15.625 μg/mL, 31.25 μg/mL, 62.5 μg/mL, 125 μg/mL, 250μg/mL, and 500 μg/mL. A control well received only 5% (v /v) of DMSO in place of a sample of an inventive complex. After 72 hours incubation under anaerobic conditions, the P. acnes cultures in the 96-well microplate were mixed well and then absorbance readings at 600 nm were taken to determine bacterial growth. […] Growth curves of P. acnes determined for BPO, AFC, AFC-Sr, AFC-Ag and AFC-Zn are depicted in FIG. 3.

[3] = test system: TPA-treated mouse ears (edema, ear thickness); assay: TPA mouse ear model of inflammation - edema inhibition; format: in vivo; details: topical, 24 hours

CC(=O)N[C@@H](CSC/C=C(\C)CC/C=C(\C)CCC=C(C)C)C(=O)O [AFC, N-acetyl-S-farnesyl-L-cysteine, reference compound]
% Erythema Inhibition in the Mouse Ear Inflammation Assay (4% concentration) [1]: ++ (“++” indicates a range of 20-40%)
pEC50 (neutrophils): 4.36
IC50 [2]: 12.9 µg/mL (≈ 35.1 µM)
% Edema Inhibition in the Mouse Ear Inflammation Assay (4% concentration) [3]: +++ (“+++” indicates >50% inhibition of edema)
